Earlier results on six compounds are cited in patent US6531162B1, “Adrenergically-mediated weight loss product” (priority 2002, dated 2003).

In one series the test system is COMT enzyme. The settings on record: in-vitro.
The target in series [1] is T1, beta-3 receptors (Homo sapiens, UniProt P13945). Conditions: in-vitro studies.
For series [2] the following is noted: green tea versus equivalent dose (50 mg) of caffeine.
The subject of a further series is humans. Conditions: after oral dosing.
The conditions of series [3]: single doses as high as 21.6 mg or daily cumulative doses as high as 43.2 mg.
Series [4] addresses T1, beta-3 receptors. Conditions: using beta blocking agents.

SMILES strings stand for the structures. “Also recorded” adds a separate entry of the source.

T1 sequence (P13945 whole entry): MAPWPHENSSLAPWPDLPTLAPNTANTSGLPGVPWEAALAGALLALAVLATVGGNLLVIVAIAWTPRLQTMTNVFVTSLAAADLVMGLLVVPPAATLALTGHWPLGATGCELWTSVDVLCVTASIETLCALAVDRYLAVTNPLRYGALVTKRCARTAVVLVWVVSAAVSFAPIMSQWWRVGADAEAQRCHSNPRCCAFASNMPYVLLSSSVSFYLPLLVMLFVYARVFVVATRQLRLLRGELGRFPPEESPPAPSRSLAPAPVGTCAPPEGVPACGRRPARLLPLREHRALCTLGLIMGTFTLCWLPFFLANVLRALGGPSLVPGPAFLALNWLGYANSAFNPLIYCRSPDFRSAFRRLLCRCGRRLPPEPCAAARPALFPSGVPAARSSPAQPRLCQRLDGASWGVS

On to `O=C(O[C@@H]1Cc2c(O)cc(O)cc2O[C@@H]1c1cc(O)c(O)c(O)c1)c1cc(O)c(O)c(O)c1` [EGCG], for which, in the series on COMT enzyme, the “inhibition of the COMT enzyme” value was “inhibit the COMT enzyme”. `NCC(O)c1ccc(O)cc1` (stereo not shown) [Octopamine]: the “beta-3 agonist activity and selectivity” value on beta-3 receptors [1] is on record as “potent selective beta-3 agonist; also recorded: selective for this receptor”. For the compound `Cn1c(=O)c2c(ncn2C)n(C)c1=O` [caffeine], the “24 hour energy expenditure” value in series [2] is reported as “no noticeable effect”. In the case of `COc1c(O)cc2c(c1O)[C@@H]1O[C@H](CO)[C@@H](O)[C@H](O)[C@H]1OC2=O` [Bergenin], in the series with fat cells, the “effect on lipogenic actions of insulin” value is listed as “oppose the lipogenic (fat building) actions of insulin”. Also, in the series on fat cells (in-vitro, compound alone), the “direct stimulation of lipolysis / adrenergic activity” value is on record as “does not directly stimulate lipolysis; also recorded: no direct adrenergic activity”. Moreover, in the series on fat cells (in-vitro, with norepinephrine), the “enhancement of lipolysis induced by norepinephrine” value is reported as “markedly enhances lipolysis; also recorded: increase the lipolytic activity of norepinephrine”. Regarding `COC(=O)[C@@H]1[C@H]2C[C@H]3c4[nH]c5ccccc5c4CCN3C[C@@H]2CC[C@@H]1O` [Yohimbine], the lipolysis in humans result in the series on humans is reported as “capable of increasing lipolysis”. In series [3], the “impact on blood pressure or heart rate” value was “no significant impact” and the tolerability entry is listed as “well tolerated”. As to `CN[C@@H](C)[C@H](O)c1ccccc1` [ephedrine], the “share of ephedrine-induced thermogenesis accounted for by beta-3 agonist activity” value at beta-3 receptors [4] was “at least 40%”.
